Measured values: patent publication US20080221021A1, “Novel Corticotropin-Releasing Factor Receptor 1 (Crfr1) Agonist” (Max-Planck-Gesellschaft Zur Forderung Der, priority 2004, published 2008)
“Also recorded” adds a separate entry of the source. Where no end group is shown, it is not given here.

Assays:
[1] = target: T1, rCRFR1 (Rattus norvegicus, UniProt P35353); test: Competition binding scintillation proximity assay, rCRFR1 membranes
T1 construct: expressed in transfected cells
T1 sequence (P35353 24-415): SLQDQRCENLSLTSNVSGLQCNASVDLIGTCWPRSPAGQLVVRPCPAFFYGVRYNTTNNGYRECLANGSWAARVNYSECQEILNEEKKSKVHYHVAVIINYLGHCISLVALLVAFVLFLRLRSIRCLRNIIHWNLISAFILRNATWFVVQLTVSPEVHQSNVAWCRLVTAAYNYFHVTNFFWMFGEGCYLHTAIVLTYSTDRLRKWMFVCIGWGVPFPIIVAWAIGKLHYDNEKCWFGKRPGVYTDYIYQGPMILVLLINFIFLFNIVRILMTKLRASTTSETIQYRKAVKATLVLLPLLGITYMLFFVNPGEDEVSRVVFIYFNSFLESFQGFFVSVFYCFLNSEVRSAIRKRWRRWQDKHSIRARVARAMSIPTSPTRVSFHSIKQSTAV
Procedure: (§1) Crude membrane fractions were prepared from human embryonic kidney (HEK) 293 cells stably expressing either cloned rat CRFR1α(rCRFR1) or mouse CRFR2β (mCRFR2β) as described (20). Rat CRFBP (rCRFBP) was produced in HEK 293 cells stably transfected with cDNA coding for rCRFBP C-terminally fused with a His6 sequence as described (36). The scintillation proximity assays (SPA) for binding analysis of CRFR and CRFBP have been already described in detail (21, 22). For competition binding assays of rCRFR1 and rCRFBP, [^125I-Tyr^0]h/rCRF was used as radiolabeled peptide, whereas [^125I-Tyr^0]Svg was employed for mCRFR2β.

[2] = target: T2, mCRFR2β (Mus musculus, UniProt Q60748); test: Competition binding scintillation proximity assay, mCRFR2β membranes
T2 construct: expressed in transfected cells
Procedure: as §1

[3] = target: T3, rCRFBP (Rattus norvegicus, UniProt P24388); test: Competition binding scintillation proximity assay, rCRFBP; details: binding analysis, in words
T3 construct: His6 (C); made in house; host or cells: HEK 293 cells, stably transfected
T3 sequence (P24388 25-322): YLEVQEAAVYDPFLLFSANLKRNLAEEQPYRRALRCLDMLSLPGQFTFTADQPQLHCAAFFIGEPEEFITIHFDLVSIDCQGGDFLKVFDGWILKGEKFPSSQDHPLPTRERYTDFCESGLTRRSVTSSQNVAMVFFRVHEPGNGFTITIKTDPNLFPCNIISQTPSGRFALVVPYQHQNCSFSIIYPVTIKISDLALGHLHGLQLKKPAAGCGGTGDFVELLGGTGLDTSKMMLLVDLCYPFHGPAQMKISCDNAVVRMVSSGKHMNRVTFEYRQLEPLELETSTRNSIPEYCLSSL
Procedure: as §1

[4] = type: physicochemical
Procedure: A high solubility under physiological conditions is a crucial prerequisite especially for compounds to be injected into the rodent brain. […] Both peptides were soluble in a concentration range of up to 1000 μM (FIG. 6), so that there was no limitation in view of the agonist doses typically used in behavioral experiments. […] Consequently, solutions of cortagine to be used in the pharmacological assays were prepared in phosphate buffered saline (PBS; pH=7.4).

[5] = test system: C57BL/6J mice; test: Elevated plus-maze test, i.c.v. injection; type: in vivo, mouse; details: for anxiety-like behavior (time spent in open arms, number of open arm entries) / locomotor activity (total distance crossed): 30 min before EPM, vs aCSF
Procedure: Nine-week old male C57BL/6J (Centre D'Elevage Janvier, Sultzfeld, France) were individually housed in macrolon cages according to the recommendations of the Society for Laboratory Animal Science (Germany). All experiments were carried out in accordance with the European Council Directive (86/609/EEC) with the permission of the Animal Protection Law enforced by the District Government of Braunschweig, State of Lower Saxony, Germany, which is in full agreement with the APA ethical guidelines. All efforts were made to minimize animal suffering. The number of mice per group was 9-11.
All peptides were dissolved in aCSF except for the CRFR2-selective antagonist antisauvagine-30 (aSvg-30) (20) that was initially dissolved in 10 mM aqueous acetic acid and diluted with the same volume of two-fold concentrated aCSF. The final pH of the peptide solutions was 7.4. The exact peptide concentration of the injection solutions was determined by amino acid analysis with a Beckman HPLC analyzer system 6300. Total hydrolysis of the peptides was carried out in the presence of 1 nmol norvaline as internal standard with 6 M HCl for 24 h at 100° C.
The elevated plus-maze (EPM) behavior of C57BL/6J mice cannulated in the lateral ventricles or lateral intermediate septal area (23) was investigated 30 min after injection of the CRFR1 agonist under investigation for 5 min in the EPM test (24). The CRFR2-selective antagonist aSvg-30 in aCSF or aCSF alone were injected 15 min before agonist administration. The behavior of the mice was recorded by a video camera connected to a PC and analyzed by the Technical & Scientific Equipment software VIDEOMOT 2. The time spent, distance crossed, and number of entries in the open arms, closed arms, and center were recorded. The cannular placement was confirmed for each mouse by histological examination of the brains after methylene blue injection (23). The behavioral data are expressed as mean±SEM, and were analyzed using a two- and one-way ANOVA, with Bonferroni/Dunn test applied, post hoc, for individual between-group comparisons at the p<0.05 level of significance. Shift of preference from the open to the closed arms was interpreted as an increase of anxiety-like behavior. Locomotor activity was determined with this test by the distance travelled.

[6] = i.c.v., two-way ANOVA over doses, EPM

T2 sequence (Q60748 1-431 isoform Q60748-2): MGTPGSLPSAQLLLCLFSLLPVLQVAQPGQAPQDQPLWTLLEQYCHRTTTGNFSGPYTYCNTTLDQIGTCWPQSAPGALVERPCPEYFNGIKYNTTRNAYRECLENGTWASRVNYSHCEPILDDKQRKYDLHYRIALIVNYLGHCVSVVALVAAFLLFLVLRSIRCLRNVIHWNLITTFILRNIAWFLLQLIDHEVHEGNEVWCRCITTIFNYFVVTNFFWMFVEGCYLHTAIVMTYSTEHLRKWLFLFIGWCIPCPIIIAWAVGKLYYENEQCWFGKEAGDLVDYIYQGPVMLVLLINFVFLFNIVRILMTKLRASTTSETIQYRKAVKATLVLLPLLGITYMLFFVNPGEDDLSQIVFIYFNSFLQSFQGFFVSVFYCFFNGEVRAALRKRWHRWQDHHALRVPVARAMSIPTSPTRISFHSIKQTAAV

For “[Glu^21, Ala^40] [Svg^1-12]x[h/rCRF^14-30]x[Svg^30-40] (XGPPISIDLSLELLREVLEMERAEQLAQQAANNRLLLDTA; X not resolved here; ends and bridges not checked; also: Glx at position 1 not given here (Gln/Glu/pGlu)) [cortagine]”, the “selectivity for CRFR1” value ([1]; binding analysis, CRFR1 vs CRFR2, in words) was “high selectivity for rCRFR1 over mCRFR2β”, the “change in affinity to CRFR1 in comparison to parent peptide” value ([1]; compound 8 vs compound 6, compound 9 vs compound 8, Nle20 analog vs compound 9) was “no significant change” and the “CRFR1-selectivity over CRFR2β, IC50(mCRFR2)/IC50(rCRFR1)” value ([1]; ratio of binding affinities) was 208. The “affinity for CRFR2” value ([2]; binding analysis, in words) was “negligible”, the “change in affinity for CRFR2 in comparison to parent peptide” value ([2]; compound 8 vs compound 6, compound 9 vs compound 8) was “no significant change” and the “affinity to CRFBP” value [3] was “negligible; also recorded: does not display any detectable affinity”. The “affinity to CRFBP” value ([3]; listed as compound 9) was “completely abolished”, the “solubility in 10 mM aqueous acetic acid” value [4] was “insoluble” and the “anxiety-like behavior (time spent in open arms, number of open arm entries)” value (“anxiety-like behavior” for short) ([5]; 10 ng i.c.v.) was “ineffective”. For the same substance, the “locomotor activity (total distance crossed)” value ([5]; 10 ng i.c.v.) was “ineffective”, the “anxiety-like behavior” value ([5]; 30 ng i.c.v.) was “significantly decreased time spent in open arms; also recorded: increased significantly anxiety-like behavior; also recorded: increased anxiety levels” and the “locomotor activity (total distance crossed)” value ([5]; 30 ng i.c.v.) was “decreased significantly; also recorded: reduced locomotor activity”. For the same substance, the “anxiety-like behavior” value ([5]; 100 ng i.c.v.) was “increased significantly anxiety-like behavior; also recorded: increased anxiety levels”, the “locomotor activity (total distance crossed)” value ([5]; 100 ng i.c.v.) was “decreased significantly; also recorded: reduced locomotor activity” and the “anxiety-like behavior” value ([5]; 300 ng i.c.v.) was “increased significantly anxiety-like behavior; also recorded: increased anxiety levels”. For the same substance, the “locomotor activity (total distance crossed)” value ([5]; 300 ng i.c.v.) was “decreased significantly; also recorded: reduced locomotor activity”, the “ability to modulate locomotor activity, cortagine vs oCRF” value [5, 6] was “did not differ” and the “anxiogenic potency compared to oCRF” value [5, 6] was “significantly higher anxiogenic potency; also recorded: doses lower than required of OCRF”.
